Measurements: ChEMBL document CHEMBL1132667, “P2-achiral, P'-extended alpha-ketoamide inhibitors of calpain I” (Bioorg Med Chem Lett, 1999)

The molecules below were run against T1, Calpain-1 catalytic subunit (Homo sapiens, UniProt P07384) (assay: Inhibitory activity against recombinant human Calpain 1).
T1 sequence (P07384 whole entry): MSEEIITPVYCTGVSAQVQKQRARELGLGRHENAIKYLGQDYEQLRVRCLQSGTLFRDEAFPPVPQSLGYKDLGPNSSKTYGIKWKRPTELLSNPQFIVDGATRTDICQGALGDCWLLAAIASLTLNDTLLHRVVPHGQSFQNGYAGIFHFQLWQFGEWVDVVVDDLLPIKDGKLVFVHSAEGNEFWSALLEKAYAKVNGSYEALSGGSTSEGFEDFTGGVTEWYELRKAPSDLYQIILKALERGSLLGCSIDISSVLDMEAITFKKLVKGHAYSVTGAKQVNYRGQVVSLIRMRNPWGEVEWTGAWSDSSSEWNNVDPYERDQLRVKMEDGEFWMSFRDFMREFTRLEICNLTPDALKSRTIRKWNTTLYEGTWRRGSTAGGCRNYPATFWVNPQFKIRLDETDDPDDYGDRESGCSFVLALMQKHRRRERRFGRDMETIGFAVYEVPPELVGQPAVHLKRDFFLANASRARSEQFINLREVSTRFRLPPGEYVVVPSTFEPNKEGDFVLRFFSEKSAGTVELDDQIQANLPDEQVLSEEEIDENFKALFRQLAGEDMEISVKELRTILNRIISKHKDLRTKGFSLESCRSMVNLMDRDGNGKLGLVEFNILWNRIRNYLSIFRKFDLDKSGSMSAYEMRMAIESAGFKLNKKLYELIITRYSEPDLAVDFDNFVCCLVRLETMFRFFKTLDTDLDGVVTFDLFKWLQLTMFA
With `O=C(CCCc1ccccc1)N[C@@H](Cc1ccccc1)C(=O)C(=O)NCCNS(=O)(=O)c1ccc(-c2ccccn2)s1` the Ki was 1100 nM.
`CC(C)CC(=O)N[C@@H](Cc1ccccc1)C(=O)C(=O)NCCNS(=O)(=O)c1ccc(-c2ccccn2)s1` showed a Ki of 420 nM.
Work on `O=C(NCCNS(=O)(=O)c1ccc(-c2cccc(CN3CCOCC3)c2)s1)C(=O)[C@H](Cc1ccccc1)NC(=O)c1c(Cl)cccc1Cl` yielded a Ki of 21 nM.
In the case of `CC(C)CCC(=O)N[C@@H](Cc1ccccc1)C(=O)C(=O)NCCNS(=O)(=O)c1ccc(-c2ccccn2)s1`, the Ki is reported as 21 nM.
In the case of `CC(C)C(=O)N[C@@H](Cc1ccccc1)C(=O)C(=O)NCCNS(=O)(=O)c1ccc(-c2ccccn2)s1`, the Ki is reported as 1100 nM.
Work on `O=C(Cc1ccc(Cl)nc1Cl)N[C@@H](Cc1ccccc1)C(=O)C(=O)NCCNS(=O)(=O)c1ccc(-c2ccccn2)s1` yielded a Ki of 57 nM.

Each molecule was assayed against T1, Calpain-1 catalytic subunit (assay: Inhibitory activity against recombinant human calpain I).
With `N#Cc1cccc(-c2ccc(S(=O)(=O)NCCNC(=O)C(=O)[C@H](Cc3ccccc3)NC(=O)c3c(Cl)cccc3Cl)s2)c1` the Ki was 8 nM.
`O=C(NCCNS(=O)(=O)c1ccc(-c2ccccn2)s1)C(=O)[C@H](Cc1ccccc1)NC(=O)c1cc(Cl)ccc1Cl` showed a Ki of 49 nM.
Work on `CC(=O)N1CCN(Cc2ccc(S(=O)(=O)NCCNC(=O)C(=O)[C@H](Cc3ccccc3)NC(=O)c3c(Cl)cccc3Cl)cc2)CC1` yielded a Ki of 71 nM.
Work on `O=C(NCCNS(=O)(=O)c1ccc(-c2ccccn2)s1)C(=O)[C@H](Cc1ccccc1)NC(=O)c1c(Cl)cccc1Cl` yielded a Ki of 26 nM.
`CC(=O)NCc1cccc(-c2ccc(S(=O)(=O)NCCNC(=O)C(=O)[C@H](Cc3ccccc3)NC(=O)c3c(Cl)cccc3Cl)s2)c1` showed a Ki of 14 nM.
`O=C(NCCNS(=O)(=O)c1ccc(CN2CCN(c3ccccn3)CC2)cc1)C(=O)[C@H](Cc1ccccc1)NC(=O)c1c(Cl)cccc1Cl` gave a Ki of 59 nM.
`O=Cc1cccc(-c2ccc(S(=O)(=O)NCCNC(=O)C(=O)[C@H](Cc3ccccc3)NC(=O)c3c(Cl)cccc3Cl)s2)c1` showed a Ki of 15 nM.
`COc1ccc(Cl)c(C(=O)N[C@@H](Cc2ccccc2)C(=O)C(=O)NCCNS(=O)(=O)c2ccc(-c3ccccn3)s2)c1` was tested, and the Ki was 46 nM.
Work on `O=C(N[C@@H](Cc1ccccc1)C(=O)O)c1c(Cl)cccc1Cl` yielded a Ki of about 360 nM.
`O=C(NCCNS(=O)(=O)c1ccc(-c2ccccn2)s1)C(=O)[C@H](Cc1ccccc1)NC(=O)c1cc(C(F)(F)F)cc(C(F)(F)F)c1` gave a Ki of 430 nM.
Molecule `Cc1cccc(C)c1C(=O)N[C@@H](Cc1ccccc1)C(=O)C(=O)NCCNS(=O)(=O)c1ccc(-c2ccccn2)s1` has a Ki of 130 nM.
Work on `O=C(NCCNS(=O)(=O)c1ccc(-c2ccccn2)s1)C(=O)[C@H](Cc1ccccc1)NC(=O)c1ccccc1` yielded a Ki of 570 nM.
With `CC(CCC(=O)N[C@@H](Cc1ccccc1)C(=O)C(=O)NCCNS(=O)(=O)c1ccc(-c2ccccn2)s1)c1ccccc1` (some centres not stated) the Ki was 62 nM.
Molecule `CS(=O)(=O)N[C@H](COCc1ccccc1)C(=O)N[C@@H](Cc1ccccc1)C(=O)C(=O)NCCNS(=O)(=O)c1ccc(-c2ccccn2)s1` has a Ki of 10 nM.
For `O=C(NCCNS(=O)(=O)c1ccc(-c2ccccn2)s1)C(=O)[C@H](Cc1ccccc1)NC(=O)c1c(F)cccc1F`, the Ki was 14 nM.
`O=C(NCCNS(=O)(=O)c1ccc(-c2ccccn2)s1)C(=O)[C@H](Cc1ccccc1)NC(=O)c1ccc2c(c1)OCO2` showed a Ki of over 1000 nM.
